Reference: patent US20250114371A1, “BIOMARKER AND PATIENT SELECTION IN TREATMENT FOR MYELOFIBROSIS” (GlaxoSmithKline LLC, priority 2021, published 2025)
Where two headings read alike, the source gives them in different places.

Columns and labels:
[1] = tested on: anemic or thrombocytopenic subjects with myelofibrosis previously treated with ruxolitinib; settings: Harrison et al., cited from earlier work
[2] = tested on: patients with myelofibrosis naïve to treatment with a JAK inhibitor; assay: SIMPLIFY-1 Phase 3 trial, MMB versus RUX, 24 weeks randomized treatment; format: in vivo, human; settings: for Response Ratio (MMB/Control): TI response at week 24, MMB/RUX; for 3-year survival: patients randomized to MMB; for Week 24 TI response rate: patients with baseline anemia; for mean ferritin change at W24 from baseline: serum ferritin, irrespective of baseline ferritin
Experimental: In the SIMPLIFY-1 trial (NCT01969838; GS-US-352-0101), the efficacy and safety of MMB versus ruxolitinib (RUX) was studied in patients with myelofibrosis who were naïve to treatment with a JAK inhibitor. Patients (N=432) with high risk or intermediate-2 risk or symptomatic intermediate-1 risk myelofibrosis received 24 weeks of treatment with 200 mg MMB once daily or 20 mg RUX twice a day (or per label), after which all patients could receive open-label momelotinib. […] The primary endpoint was a reduction by at least 35% in the spleen volume at 24 weeks compared with baseline.
(§1) The relationship between W24 response and overall survival (OS) was explored in patients randomized to MMB in the SIMPLFY-1 (S1) and SIMPLIFY-2 (S2) trials.
(§2) Responders were defined as follows: • W24 TI response (TI-R): no RBC transfusion within ?12 weeks immediately prior to W24, with Hgb≥8 g/dL • W24 spleen response: ≥35% spleen volume reduction vs baseline (BL) • W24 symptom response: ≥50% reduction in MFSAF total symptom score vs BL
(§3) Survival from baseline was estimated using K-M analysis with descriptive log-rank tests for comparison applied (all p values are descriptive). Hazard ratios were computed using proportional hazard regression. To adjust for the time to response bias, overall survival from W24 was also compared. As patients randomized to the control arm in both studies and crossed over to open label MMB after 24 weeks of randomized treatment, a valid comparison of overall survival with patients randomized to RUX or BAT/RUX vs MMB was not possible, therefore, only the MMB arm was analyzed.
(§4) Based on the findings from the Phase 2 translational biology study we retrospectively analyzed the relationship between serum ferritin, hepcidin and C-reactive protein (CRP) and the W24 TI response rates for patients randomized to MMB and RUX in the S1 study using univariate analyses and multiple logistic regression models. These findings were then independently confirmed in the previously RUX treated patients in S2.

[3] = tested on: myelofibrosis patients with low platelet counts; assay: Re-analysis of the data from the SIMPLIFY-1 and SIMPLIFY-2 trials by platelet count; format: in vivo, human; settings: patients whose platelet counts are 150×109 per liter or below
[4] = tested on: transfusion-dependent myelofibrosis patients; settings: Oh et al. 2020, cited from earlier work
[5] = tested on: anemic or thrombocytopenic subjects with myelofibrosis previously treated with ruxolitinib; assay: SIMPLIFY-2 Phase 3 trial, MMB versus best available therapy (BAT); format: in vivo, human; settings: for Response Ratio (MMB/Control): TI response at week 24, MMB/BAT
Source text: In the SIMPLIFY-2 trial (NCT02101268; GS-US-352-1214), the efficacy and safety of MMB versus best available treatment (BAT) was studied in anemic or thrombocytopenic subjects with myelofibrosis who were previously treated with ruxolitinib (RUX). There was no lower limit for the required baseline platelet count. […] The primary endpoint was a reduction by at least 35% in the spleen volume at 24 weeks compared with baseline.
as §1, §2, §3, §4

[6] = tested on: patients with myelofibrosis naïve to treatment with a JAK inhibitor; settings: Mesa et al., cited from earlier work

## Cl.N#CCNC(=O)c1ccc(-c2ccnc(Nc3ccc(N4CCOCC4)cc3)n2)cc1 [MMB, N-(cyanomethyl)-4-(2-(4-morpholinophenylamino)pyrimidin-4-yl)benzamide]
[1]; compared to BAT group
  total symptom score (TSS) response: greater
  transfusion dependence: lower
  transfusion independence: higher
  transfusions: fewer
[1]; vs BAT
  reduction of spleen size (primary endpoint): not superior to BAT
[2]; MMB W24 spleen responders vs nonresponders
  overall survival hazard ratio (HR): 0.59
[2]; MMB W24 symptom (TSS) responders vs nonresponders
  overall survival hazard ratio (HR): 0.66
[2]; MMB patients with anemia at baseline, W24 TI-R vs nonresponders
  overall survival hazard ratio (HR): 0.32
[2]; MMB vs RUX, irrespective of baseline anemia, platelet count or transfusion status (FIGS. 1-3)
  W24 TI-R rate: higher in patients randomized to MMB vs RUX
[2]; baseline ferritin <90 ng/mL
  Response Ratio (MMB/Control): 1.0843
[2]; baseline ferritin ≥90 ng/mL
  Response Ratio (MMB/Control): 1.7538
[2]; all patients randomized to MMB, W24 TI responders vs TI nonresponders
  overall survival hazard ratio (HR): 0.30
[2]; compared to RUX (FIGS. 12 and 13)
  stabilizing ferritin over time: more effective at stabilizing ferritin over time when compared to RUX
[2]; each ferritin cohort (FIG. 14)
  W24 TI-R by baseline ferritin cohort: superior to RUX for each ferritin cohort
[2]; ferritin levels exceed 650 ng/mL (FIG. 14)
  W24 TI-R by baseline ferritin cohort: nominally better than RUX
[2]; TI nonresponders at W24
  3-year survival: 50%
[2]; TI responders at W24
  3-year survival: 80%
[2]
  Week 24 TI response rate: 45%
  mean ferritin change at W24 from baseline: +13.8 ng/mL
[3]
  reducing spleen size (SSR), improving total symptom scores (TSS), improving transfusion independence rates: effective
  thrombocytopenia: without momelotinib administration causing thrombocytopenia
[4]
  hepcidin: acutely and chronically suppresses elevated levels of hepcidin
[4]; listed as momelotinib
  hepcidin: inhibited
[4]; transfusion-dependent myelofibrosis patients
  transfusion dependency: reversed or reduced
[5]; MMB symptom (TSS) responders vs TSS nonresponders
  overall survival hazard ratio (HR): 0.67
[5]; baseline ferritin <90 ng/mL
  Response Ratio (MMB/Control): 1.1429
[5]; baseline ferritin ≥90 ng/mL
  Response Ratio (MMB/Control): 3.7949
[5]; all patients randomized to MMB, W24 TI responders vs TI non-responders
  overall survival hazard ratio (HR): 0.57
[6]; compared to RUX
  transfusion dependence rate: decreased
  transfusion independence rate: increased
  transfusion rate: reduced
[6]; vs RUX, JAKi-naïve patients, 24 weeks
  reduction of spleen size (primary endpoint): noninferior to RUX
[6]; vs RUX
  total symptom score (TSS) response (secondary endpoint): non-inferiority was not demonstrated

## N#CC[C@H](C1CCCC1)n1cc(-c2ncnc3[nH]ccc23)cn1 [RUX, Ruxolitinib, reference compound]
[2]
  Week 24 TI response rate: 26%
  mean ferritin change at W24 from baseline: +226.1 ng/mL
